How the values were obtained:
Type in all cases: in vitro ADME
cytochrome P450 2C9 = molecular target: T1, cytochrome P450 2C9 (Homo sapiens, UniProt P11712); experiment: Cytochrome P450 cocktail inhibition assay, 2C9 (diclofenac); conditions: human liver microsomes 0.1 mg/mL; read-out: CYP Inhibition (2C9)
T1 construct: human liver microsomes (HLM; 0.1 mg/mL); from tissue; host or cells: human liver microsomes
Method: (§1) Solutions of substrates for cytochrome P450 enzymes (1A2: Phenacetin, 10 μM; 2C9: Diclofenac, 5 μM; 2D6: Dextromethorphan, 5 μM; 3A4: Midazolam, 2 μM; as a mixture), test compound (VU6028418; multiple concentrations), and the positive control for pan-P450 inhibition (miconazole; multiple concentrations) were prepared. A reaction mixture of assay buffer (100 mM Kpi at pH 7.4), human liver microsomes (HLM; 0.1 mg/mL), and the substrate mixture were aliquoted into a 96-deepwell plate. The test compound and control were then added to the plate such that the final concentration of test compound ranged from 0.1-30 μM (two replicates per concentration). The assay plate was vortexed (briefly) and pre-incubated at 37° C. in an orbital shaker for 15 minutes. The reaction was initiated by addition of NADPH (1 mM, final concentration) and continued for 8 min before it was quenched by acetonitrile (2× volume) containing an LCMS internal standard (carbamazepine, 50 nM). The plate was then centrifuged (4000 rcf, 4° C., 10 min), and the resulting supernatant was diluted with water (1× volume) for LC-MS/MS. Assay samples were analyzed via electrospray ionization on an AB Sciex API-4000 (Foster City, Calif.) triple-quadrupole mass spectrometer coupled to Agilent Technologies 1290 Infinity series pumps (Santa Clara, Calif.), and a Leap Technologies CTC PAL auto -sampler (Carrboro, NC). Analytes were separated by gradient elution on a Phenomenex Kinetex (C18 2.1×50 mm 5 μm) column (Torrance, Calif.) thermostated at 40° C. The HPLC mobile phase A was 0.1% formic acid in water (pH unadjusted), and the mobile phase B was 0.1% formic acid in acetonitrile (pH unadjusted). […] The total run time was 2.5 min and the HPLC flow rate was 0.5 mL/min. The source temperature was set at 500° C. and mass spectral analyses were performed using multiple reaction monitoring (MRM) with mass transitions specific to each substrate's metabolite utilizing a Turbo-Ionspray® source in positive ionization mode (5.0 kV spray voltage). The test compound and control IC50 values for each enzyme were obtained by quantitating the inhibition of metabolite formation for each substrate. A 0 μM test compound (or control) conditions represented 100% enzymatic activity, and the effect of increasing test compound concentrations on enzymatic activity was then calculated from the % of control activity. Inhibition curves were fitted using XLfit 5.2.2 (four-parameter logistic model, equation 201) in order to calculate the concentration that produced half-maximal inhibition (IC50) of each enzyme.

cytochrome P450 2D6 = molecular target: T2, cytochrome P450 2D6 (Homo sapiens, UniProt P10635); experiment: Cytochrome P450 cocktail inhibition assay, 2D6 (dextromethorphan); conditions: human liver microsomes 0.1 mg/mL; read-out: CYP Inhibition (2D6)
T2 construct: human liver microsomes (HLM; 0.1 mg/mL); from tissue; host or cells: human liver microsomes
Method: as §1

P-gp = molecular target: T3, P-gp (Homo sapiens, UniProt P08183); experiment: P-gp efflux in MDR1-MDCK cell monolayers; conditions: dog, pH 7.4, MDCK-MDR1, 5 μM
T3 construct: expressed in transfected cells; host or cells: MDR1-MDCK
Method: MDR1-MDCK cell monolayers were grown to confluence on collagen-coated, microporous membranes in 12-well assay plates. The permeability assay buffer was Hanks' balanced salt solution containing 10 mM HEPES and 15 mM glucose at a pH of 7.4. The buffer in the receiver chamber also contained 1% bovine serum albumin. The dosing solution concentration was 5 μM of test article in the assay buffer. Cell monolayers were dosed on the apical side (A- to -B) or basolateral side (B- to -A) and incubated at 37° C. with 5% CO2 in a humidified incubator. Samples were taken from the donor and receiver chambers at 120 minutes Each determination was performed in duplicate. The flux of lucifer yellow was also measured post-experimentally for each monolayer to ensure no damage was inflicted to the cell monolayers during the flux period. All samples were assayed by LC-MS/MS using electrospray ionization.

T2 sequence (P10635 whole entry): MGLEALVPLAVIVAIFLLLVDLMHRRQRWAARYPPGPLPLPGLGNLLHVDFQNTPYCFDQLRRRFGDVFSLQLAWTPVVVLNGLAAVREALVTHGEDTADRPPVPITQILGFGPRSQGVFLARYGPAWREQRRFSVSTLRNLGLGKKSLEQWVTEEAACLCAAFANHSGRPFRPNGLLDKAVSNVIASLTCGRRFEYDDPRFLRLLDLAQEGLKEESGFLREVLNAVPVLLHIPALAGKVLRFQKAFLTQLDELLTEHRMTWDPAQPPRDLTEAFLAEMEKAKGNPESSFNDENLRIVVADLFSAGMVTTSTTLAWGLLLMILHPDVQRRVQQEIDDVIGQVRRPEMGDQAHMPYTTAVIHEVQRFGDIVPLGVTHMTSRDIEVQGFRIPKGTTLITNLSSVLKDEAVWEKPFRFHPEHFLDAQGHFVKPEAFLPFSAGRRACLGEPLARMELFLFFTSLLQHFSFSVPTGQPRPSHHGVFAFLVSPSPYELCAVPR
T3 sequence (P08183 whole entry): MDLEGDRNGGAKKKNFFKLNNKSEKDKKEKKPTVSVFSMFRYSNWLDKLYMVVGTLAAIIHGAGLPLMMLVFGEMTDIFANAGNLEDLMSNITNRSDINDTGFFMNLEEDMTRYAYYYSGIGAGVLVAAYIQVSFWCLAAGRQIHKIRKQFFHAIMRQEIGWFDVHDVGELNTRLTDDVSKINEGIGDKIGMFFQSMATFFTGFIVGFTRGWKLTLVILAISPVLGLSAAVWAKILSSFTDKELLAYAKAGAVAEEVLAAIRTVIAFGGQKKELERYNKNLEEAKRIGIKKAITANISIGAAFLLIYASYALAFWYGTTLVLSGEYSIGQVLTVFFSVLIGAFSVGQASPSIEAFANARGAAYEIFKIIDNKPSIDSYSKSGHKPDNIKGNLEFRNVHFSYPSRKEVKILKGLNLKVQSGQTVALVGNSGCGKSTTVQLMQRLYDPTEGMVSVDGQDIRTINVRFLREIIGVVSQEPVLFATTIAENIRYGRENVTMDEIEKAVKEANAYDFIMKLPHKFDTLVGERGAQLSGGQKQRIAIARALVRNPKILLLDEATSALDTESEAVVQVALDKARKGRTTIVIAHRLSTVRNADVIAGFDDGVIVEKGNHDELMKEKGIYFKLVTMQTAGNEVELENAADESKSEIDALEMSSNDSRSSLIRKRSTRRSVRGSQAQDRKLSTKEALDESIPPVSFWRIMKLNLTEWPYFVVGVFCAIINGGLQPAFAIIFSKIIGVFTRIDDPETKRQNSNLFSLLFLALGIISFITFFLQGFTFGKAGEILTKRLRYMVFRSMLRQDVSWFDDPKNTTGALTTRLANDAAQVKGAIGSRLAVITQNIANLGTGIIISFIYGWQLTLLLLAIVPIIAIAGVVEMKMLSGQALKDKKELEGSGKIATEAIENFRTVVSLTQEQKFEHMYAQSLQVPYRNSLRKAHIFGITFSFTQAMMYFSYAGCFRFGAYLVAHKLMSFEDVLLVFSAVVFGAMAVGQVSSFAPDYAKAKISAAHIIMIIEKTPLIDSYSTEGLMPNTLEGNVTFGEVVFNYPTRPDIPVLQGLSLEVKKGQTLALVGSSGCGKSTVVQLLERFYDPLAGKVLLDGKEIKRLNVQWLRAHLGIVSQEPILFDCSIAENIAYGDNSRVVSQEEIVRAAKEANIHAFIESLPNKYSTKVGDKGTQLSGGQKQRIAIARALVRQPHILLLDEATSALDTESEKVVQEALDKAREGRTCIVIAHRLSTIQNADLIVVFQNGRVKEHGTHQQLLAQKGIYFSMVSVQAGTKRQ
T1 sequence (P11712 whole entry): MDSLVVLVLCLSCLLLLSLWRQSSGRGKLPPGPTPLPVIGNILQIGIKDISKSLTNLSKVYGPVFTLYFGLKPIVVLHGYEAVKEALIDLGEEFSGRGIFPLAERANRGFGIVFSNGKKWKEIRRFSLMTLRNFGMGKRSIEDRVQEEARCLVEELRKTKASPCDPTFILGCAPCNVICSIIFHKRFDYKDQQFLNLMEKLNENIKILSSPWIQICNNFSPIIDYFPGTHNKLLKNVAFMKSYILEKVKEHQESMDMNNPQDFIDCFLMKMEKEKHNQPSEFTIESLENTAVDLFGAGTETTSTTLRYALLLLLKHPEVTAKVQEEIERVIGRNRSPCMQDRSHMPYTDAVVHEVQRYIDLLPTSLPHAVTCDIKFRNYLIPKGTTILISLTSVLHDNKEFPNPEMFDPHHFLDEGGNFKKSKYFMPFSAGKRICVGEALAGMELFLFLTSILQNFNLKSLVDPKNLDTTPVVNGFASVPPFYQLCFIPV

Row | IC50 (cytochrome P450 2C9) [µM] | IC50 (cytochrome P450 2D6) [µM] | efflux ratio at 120 min, 5 μM (P-gp) | Structure (SMILES)
1 | 9.8 | > 30 | 8.9 | Fc1cc(F)c(F)c(-c2ccc(N[C@H]3C[C@@H]4CN(CC5CCOCC5)C[C@@H]4C3)nn2)c1 [Compound 1, (3aR,5s,6aS)-2-((tetrahydro-2H-pyran-4-yl)methyl)-N-(6-(2,3,5-trifluorophenyl)pyridazin-3-yl)octahydrocyclopenta[c]pyrrol-5-amine]
2 | > 30 | > 30 | 2.6 | Fc1cc(F)c(F)c(-c2ccc(N[C@H]3C[C@@H]4CN(Cc5ccccn5)C[C@@H]4C3)nn2)c1 [Compound 2, (3aR,5s,6aS)-2-(pyridin-2-ylmethyl)-N-(6-(2,3,5-trifluorophenyl)pyridazin-3-yl)octahydrocyclopenta[c]pyrrol-5-amine]
